Reference: ChEMBL document CHEMBL1154687, “Binding ensemble profiling with photoaffinity labeling (BEProFL) approach: mapping the binding poses of HDAC8 inhibitors” (J Med Chem, 2009)

Molecular target: T1, Histone deacetylase 8 (Homo sapiens, UniProt Q9BY41)
T1 sequence (Q9BY41 whole entry): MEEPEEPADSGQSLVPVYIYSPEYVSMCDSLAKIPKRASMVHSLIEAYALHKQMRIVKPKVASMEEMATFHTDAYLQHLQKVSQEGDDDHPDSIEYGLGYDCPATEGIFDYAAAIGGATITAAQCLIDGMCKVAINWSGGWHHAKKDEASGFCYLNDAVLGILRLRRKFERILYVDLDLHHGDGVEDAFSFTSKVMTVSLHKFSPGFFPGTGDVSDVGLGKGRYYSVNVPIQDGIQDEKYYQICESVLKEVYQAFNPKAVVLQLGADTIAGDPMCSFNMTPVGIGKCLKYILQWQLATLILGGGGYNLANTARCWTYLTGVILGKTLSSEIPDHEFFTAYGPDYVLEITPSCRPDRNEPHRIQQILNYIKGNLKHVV
Experiment: Inhibition of human recombinant HDAC8 using fluorescent acetylated substrate

IC50	Ki	SMILES
2.71 µM	2.43 µM	[N-]=[N+]=Nc1ccc(-c2csc(NC(=O)CCCCCCC(=O)NO)n2)cc1
7.34 µM	6.59 µM	[N-]=[N+]=NCc1cc(COc2ccc(NC(=O)CCCCCCC(=O)NO)cc2)cc(N=[N+]=[N-])c1
